Data published in patent US20070004633A1, “Use of peptidic conjugates for preparing compositions for alopecia preventive and curative treatment” (priority 2003, published 2007).
Lipoyl = N-lipoyl

System: anagen-phase hair follicles of mouse vibrissae
Assay: Growth of mouse vibrissae in vitro (anagen-phase hair follicle culture, technique of Philpott)
Format: cell-based
Set-up: unit not given here
Conditions: peptide 10^−7 M, cultured mouse vibrissae follicles
Experimental: Effects of the Various Peptides on the Growth of Mouse Vibrissae In Vitro
In order to show the stimulatory effect of the peptides on hair growth, anagen-phase hair follicles of mouse vibrissae are cultured according to the technique described by Philpott (Philpott et al. 1994, Human Hair growth in vitro: a model for the study of hair biology. Journal of dermatological science 7; S55-S72). The growth of the hair follicle shaft was followed for several days (D0 to D4). The results are reported in the table below for the peptides R, S and V described above.

Row | Substance | growth of the hair follicle shaft (D0) | growth of the hair follicle shaft (D1) | growth of the hair follicle shaft (D2) | growth of the hair follicle shaft (D3) | growth of the hair follicle shaft (D4)
1 | H-Gly-His-Lys-OH [Peptide R] | 0.00 | 0.8 | 1.27 | 1.38 | 1.38
2 | Ac-Lys-Gly-His-Lys-NH2 (Ac-KGHK-NH2) [Peptide V] | 0.00 | 0.86 | 1.34 | 1.65 | 1.65
3 | Lipoyl-Lys-Gly-His-Lys-NH2 (Lipoyl-KGHK-NH2) [Peptide S] | 0.00 | 0.77 | 1.47 | 1.72 | 1.86
